Measured values from patent publication US20250296934A1, “AZEPINOINDOLES AND METHODS OF PREPARATION THEREOF” (priority 2022, published 2025).

Assay: In vitro hepatocyte clearance, human
Type: in vitro ADME
Conditions: Human hepatocytes
Experimental: Additional experimentation was performed on compounds 1, W5, and A93. Table 6a, 6b and 6c summarize, among other things, the anticipated hepatic clearance of compounds 1, W5 and A93 respectively, in various species, as specified in Table 6a, 6b and 6c and as determined by calculating the in vitro hepatocyte clearance over time and scaling such rate with such species' hepatocyte count and the anticipated liver blood flow rate in such species.

Cc1ccc(O)c2c3c([nH]c12)CCNCC3 [Cpd #1 (Pharm-136), 7-Methyl-1,2,3,4,5,6-hexahydroazepino[4,5-b]indol-10-ol]
hepatocyte CLint: < 2.71 µL/min/1e6 cells | half-life (read-out: In vitro T1/2): > 8.53 h | CLint scaled (read-out: Scale-up Clint): < 6.89 mL/min/kg
